Experimental data published in US20240415819A1, “MACROCYCLIC COMPOUNDS AS PROTEASOME SUBUNIT BETA TYPE-5 INHIBITORS” (Lead Discovery Center GmbH, priority 2021, published 2024).

Assays:
[1] = molecular target: T1, β5 subunit of the human immunoproteasome (IPS) (Homo sapiens, UniProt P28062); assay: β5 inhibition assay, human immunoproteasome (Suc-LLVY-AMC); assay type: biochemical; conditions: IC50 class, Suc-LLVY-AMC substrate
T1 construct: purchased Boston Biochem E-370
Procedure, shortened: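 Human immunoproteasome (1 nM final) was preincubated 10 min at RT with compound in 100 mM HEPES pH 7.5, 50 mM NaCl, 0.02% SDS, 1 mM DTT. Suc-LLVY-AMC (22.6 μM final) was then added for 4 h at RT in the dark. After stopping with 1 μM bortezomib, AMC fluorescence was read (ex 355/em 460 nm).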

[2] = system: hPMBC; assay: Chymotrypsin-like ProteasomeGlo assay in hPBMC; assay type: cell-based; conditions: Homo sapiens; read-out: Pglo hPBMC
Procedure, shortened: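 B cells isolated from human PBMC (buffy coats, density gradient, magnetic isolation). Cells treated with compound for 105 min at 37 °C, with staurosporine and DMSO included. Chymotrypsin-like proteasome activity read by luminescence with Suc-LLVY-Glo substrate to derive IC50.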

Cc1ccc2cc1CNC(=O)[C@H](CCc1ccccc1)NC(=O)[C@@H](NC(=O)OCc1ccccc1)CC(=O)N1CCC[C@H](CCO2)C1 [Compound 292, benzyl ((13R,9S,12S)-5^4-methyl-8,11,14-trioxo-9-phenethyl-4-oxa-7,10-diaza-1(3,1)-piperidina-5(1,3)-benzenacyclotetradecaphane-12-yl)carbamate]
IC50 [1]: < 100 nM
IC50 [2]: < 100 nM

CCC(C(=O)N[C@H]1CC(=O)N2CCCC(CCOc3ccc(C)c(c3)CNC(=O)[C@H](CCc3ccccc3)NC1=O)C2)c1ccc(OC)c(OC)c1 (stereo partly drawn) [Compound 64, 2-(3,4-dimethoxyphenyl)-N-((9S,12S)-5^4-methyl-8,11,14-trioxo-9-phenethyl-4-oxa-7,10-diaza-1(3,1)-piperidina-5(1,3)-benzenacyclotetradecaphane-12-yl)butanamide]
IC50 [1]: < 100 nM
IC50 [2]: < 100 nM

Cc1ccc2cc1CNC(=O)[C@H](CCc1ccccc1)NC(=O)[C@@H](NC(=O)OCC1(C)COC1)CC(=O)N1CCCC(CCO2)C1 (stereo partly drawn) [Compound 293, (3-methyloxetan-3-yl)methyl ((9S,12S)-5^4-methyl-8,11,14-trioxo-9-phenethyl-4-oxa-7,10-diaza-1(3,1)-piperidina-5(1,3)-benzenacyclotetradecaphane-12-yl)carbamate]
IC50 [1]: < 100 nM
IC50 [2]: < 100 nM

CC(=O)N[C@H]1CC(=O)N2CCCC(CCOc3ccc(C)c(c3)CNC(=O)C(c3cnn(Cc4ccccc4)c3)NC1=O)C2 (stereo partly drawn) [Compound 565, N-((12S)-9-(1-benzyl-1H-pyrazol-4-yl)-5^4-methyl-8,11,14-trioxo-4-oxa-7,10-diaza-1(3,1)-piperidina-5(1,3)-benzenacyclotetradecaphane-12-yl)acetamide]
IC50 [1]: < 100 nM
IC50 [2]: 100 to 500 nM

Cc1ccc2cc1CNC(=O)[C@H](CCc1ccccc1)NC(=O)[C@H](NC(=O)OCc1ccccc1)CC(=O)N1CCC[C@H](CCO2)C1 [Compound 291, benzyl ((13R,9S,12R)-5^4-methyl-8,11,14-trioxo-9-phenethyl-4-oxa-7,10-diaza-1(3,1)-piperidina-5(1,3)-benzenacyclotetradecaphane-12-yl)carbamate]
IC50 [1]: < 100 nM
IC50 [2]: 1000 to 5000 nM
